Laboratory results from patent US20260241041A1, “FLUORESCENCE IMAGING REAGENT FOR LIPID DROPLETS IN TISSUES AND CELLS” (NATIONAL UNIVERSITY CORPORATION GUNMA UNIVERSITY, priority 2021, published 2026).

Experiments:
[1] = Measurement of maximum absorption wavelength, maximum fluorescence wavelength and fluorescence quantum yield in solvents; format: physicochemical
Description: Using a luminescent quantum yield measurement apparatus ([…]-01, manufactured by Hamamatsu Photonics K. K.), the maximum absorption wavelength (λabs/nm), the maximum fluorescence wavelength (λflu/nm), and the fluorescence quantum yield (Φf) of the compound in each solvent were measured. […] The fluorescence quantum yield was not less than 0.9 in any of the solvents.

[2] = Measurement of fluorescence lifetime in solvents; format: physicochemical
Description: The fluorescence lifetime (τf) of the compound in each solvent was measured using a compact fluorescence lifetime measurement apparatus (Quntaurus-Tau, manufactured by Hamamatsu Photonics K. K.).
The compounds of the present invention synthesized in the above Synthesis Examples (FIG. 4; DBC30, DBC30-Bu, and DBC30-Ph) contain an 8-dibutylaminocoumarine skeleton. […] The maximum absorption wavelength was found at 401 to 412 nm, and the maximum fluorescence wavelength was found at 467 to 484 nm, which corresponds to blue fluorescence. […] The fluorescence quantum yield was not less than 0.9 in any of the solvents.

[3] = system: lipid droplets in HeLa cells; assay: Fluorescence imaging of lipid droplets in cultured cells (luminescence intensity vs Lipi-Blue); format: cell-based; details: 400 μM oleic acid 48 h, reagent 500 nM, 60 min, excitation 430 nm, compared with Lipi-Blue
Description: (§1) Fluorescence intensity imaging and fluorescence lifetime imaging were carried out using a confocal laser microscope (IX-73; manufactured by Olympus Corporation) equipped with a confocal scanner (DCS-120; Becker & Hickl).
Imaging of lipid droplets in cultured cells was studied by a comparative experiment on the performance between DBC30, DBC30-Bu, and DBC30-Ph, and a commercially available blue imaging reagent (Lipi-Blue). The investigated items were the luminescence intensity and the photostability.
Each fluorescent reagent was added to a final concentration of 500 nM to HeLa cells cultured for 48 hours in the presence of 400 μM oleic acid. Culture was then performed for 60 minutes, and the cultured cells were irradiated with an excitation light (DBC30, DBC30-Bu, DBC30-Ph, Lipi-Blue: 430 nm) required for the imaging, followed by observation using a confocal laser microscope.

[4] = system: lipid droplets in HeLa cells; assay: Co-staining with BODIPY 493/503 for lipid droplet selectivity; format: cell-based; details: 400 μM oleic acid, 100 nM, 30 min, excitation 430 nm, observation 460-500 nm
Description: In order to clarify the lipid droplet selectivities of DBC30, DBC30-Bu, and DBC30-Ph, co-staining experiments were carried out with BODIPY 493/503, which is a commercially available green fluorescent lipid droplet reagent (FIGS. 8 to 10). Each fluorescent reagent was added to a final concentration of 100 nM to HeLa cells cultured for 48 hours in the presence of 400 μM oleic acid. Culture was then performed for 30 minutes, and the cultured cells were irradiated with an excitation light required for the imaging, followed by observation. For DBC30, DBC30-Bu and DBC30-Ph, the excitation wavelength was 430 nm, and the observation wavelength was 460-500 nm. For BODIPY 493/503, the excitation wavelength was 488 nm, and the observation wavelength was 510 to 560 nm.

[5] = Solubility / precipitation in physiological saline; format: physicochemical
Description: (§2) Fluorescence imaging of lipid droplets in a tissue, and of an adipose tissue, using DBC30, DBC30-Bu, or DBC30-Ph is described below. Since the DBC30 series has remarkably low solubility in water (physiological saline), they cannot be easily directly dissolved. […] Therefore, they cannot be administered to mice. In view of this, the 5 mM stock solution was added (at a volume ratio of 10%) to physiological saline supplemented with 10% bovine serum albumin. […] Regarding administration of MNs-NB, a stock solution in DMSO is directly administered to mice. Since administration of DMSO may cause death of mice from shock, the administration method in the present invention is thought to be a safer method. Here, 100 to 200 μL of 500 μM solution (50 to 100 nmol) was administered to the tail vein of mice under anesthesia, and a fluorescence imaging experiment was carried out. In the present experiment, a microscope capable of acquiring fluorescence lifetime images as well as fluorescence intensity images (FLIM: fluorescence lifetime imaging microscope) was used.

[6] = green fluorescence; cited from earlier work
[7] = system: lipid droplets in HeLa cells; assay: Photostability in cells under repeated confocal scanning; format: cell-based; details: 400 μM oleic acid, 100 nM, 500 times of scanning, excitation 430 nm
Description: Photostability is an important factor in long-term measurement for, for example, tracing the processes of formation, fusion, and degradation of lipid droplets. Each fluorescent reagent was added to a final concentration of 100 nM (DBC30, C6-OBu, or BODIPY493/503) or 2 μM (Lipi-Blue) to HeLa cells cultured for 48 hours in the presence of 400 μM oleic acid. Culture was then performed for 30 minutes, and the cultured cells were irradiated with an excitation light (DBC30, DBC30-Bu, Lipi-Blue: 430 nm; BODIPY 493/503: 488 nm) required for the imaging, followed by acquisition of imaging images using a confocal laser microscope. The photostability was evaluated by 500 times of scanning in which a set of 50 times of scanning was repeated.

lipid droplets = assay: Multicolor imaging with Mito Tracker Green and Lyso Tracker Red; format: cell-based; details: co-staining with Mito Tracker Green and Lyso Tracker Red
From the text: Mito Tracker Green (excitation wavelength, 488 nm; observation wavelength, 510 to 560 nm), which is a green fluorescent reagent showing accumulation in mitochondria, and Lyso Tracker Red (excitation wavelength, 570 nm; observation wavelength, >590 nm), which is a red fluorescent reagent showing accumulation in lysosomes, were used.

[8] = system: lipid droplets in the liver; assay: Fluorescence intensity and lifetime imaging of liver lipid droplets in normal and fatty-liver model mice; format: in vivo, mice (BALB/cAJcl); details: 50 nmol, tail vein
Description: as §1
as §2, with “used. […]” for “used.”

[9] = system: adipose tissues and lipid droplets; assay: Fluorescence imaging of adipose tissues, skeletal muscle and kidney of a mouse; format: in vivo, mouse (BALB/cAJcl); details: 50 nmol
Description: as §1, §2
In an individual, various adipose tissues and lipid droplets are present. Their imaging was carried out using DBC30. […]

[10] = 5 mM DMSO stock added at 10% to physiological saline supplemented with 10% bovine serum albumin
[11] = 5 mM DMSO stock added at volume ratio of 10% to physiological saline

Row | λabs max ([1]; in Bu2O (dibutyl ether)) [nm] | λflu max ([1]; in Bu2O (dibutyl ether)) [nm] | φl (fluorescence quantum yield) ([1]; in Bu2O (dibutyl ether)) | λabs max ([1]; in MeCN (acetonitrile)) [nm] | λflu max ([1]; in MeCN (acetonitrile)) [nm] | φl (fluorescence quantum yield) ([1]; in MeCN (acetonitrile)) | τf (fluorescence lifetime) ([2]; in Bu2O (dibutyl ether)) [ns] | τf (fluorescence lifetime) ([2]; in MeCN (acetonitrile)) [ns] | precipitation [5, 10] | Structure (SMILES) | fluorescence intensity in cells [3] | lipid droplet selectivity (co-staining with BODIPY 493/503) [4] | precipitation [5, 11] | fluorescence wavelength [6] | photostability in cells [7] | use in multicolor imaging (lipid droplets) | imaging of lipid droplets in liver ([8]; fatty-liver model mouse (Week 2)) | imaging of lipid droplets in liver ([8]; mouse fed with a normal diet) | imaging of lipid droplets in kidney [9] | imaging of subcutaneous adipose tissue, abdominal adipose tissue, skeletal muscle and kidney [9]
1 | 399 | 467 | 0.92 | 412 | 484 | 0.92 | 2.29 | 2.51 | could be suppressed | CCCCN(CCCC)c1ccc2cc(-c3nc4ccccc4n3-c3ccccc3)c(=O)oc2c1 [DBC30-Ph] | higher fluorescence intensities than the HeLa cells to which Lipi-Blue was added | found to have lipid droplet selectivity | precipitation of DBC30, DBC30-Bu, or DBC30-Ph occurs | – | – | – | – | – | – | –
2 | – | – | – | – | – | – | – | – | – | CC1=CC(C)=[N+]2C1=C(C)c1c(C)cc(C)n1[B-]2(F)F [BODIPY 493/503] | – | – | – | about 500 nm | – | – | – | – | – | –
3 | 404 | 468 | 0.93 | 410 | 484 | 0.90 | 2.29 | 2.55 | could be suppressed | CCCCN(CCCC)c1ccc2cc(-c3nc4ccccc4n3C)c(=O)oc2c1 [DBC30] | higher fluorescence intensities than the HeLa cells to which Lipi-Blue was added | found to have lipid droplet selectivity | precipitation of DBC30, DBC30-Bu, or DBC30-Ph occurs | – | higher photostability compared to the conventional reagents such as Lipi-Blue | can be used for multicolor imaging | large lipid droplets were imaged over the entire liver surface | small lipid droplets could be found in hepatocytes | small lipid droplets distributed in tubular cells could be imaged | Fluorescence derived from DBC30 was found from sites where lipid is accumulated
